Measurements as given in patent US20220226299A1 (NIPPON CHEMIPHAR CO., LTD., priority 2019, published 2022).
Structures can show the parent of a compound that is named as a salt.

Biological target: T1, human Cav3.2 channels (Homo sapiens, UniProt O95180)
T1 construct: human Cav3.2 channel ORF (Open Reading Frame) gene; expressed in transfected cells; host or cells: HEK293 cells (ATCC No. CRL-1573), pcDNA3.1(+) plasmid
Assay: T-type calcium blocking action: intracellular calcium (Fluo-4 AM fluorescence) in HEK293 cells steadily expressing human Cav3.2 channels
Assay type: cell-based
Details: HEK293 cells expressing human Cav3.2; KCl-stimulated calcium influx, Fluo-4 fluorescence; Tables 1 to 3
Text: T-Type Calcium Blocking Action
(1) Construction of Cells Steadily Expressing Human Cav3.2 Channels
A sequence obtained by adding HindIII site and a kozak sequence (GCCACC) to the 5′-side of human Cav3.2 channel ORF (Open Reading Frame) gene and adding a KpnI site to the 3′-side of the gene, was incorporated into pcDNA3.1(+) (Thermo Fisher Scientific, #V790-20), and the plasmid was introduced into HEK293 cells (ATCC No. CRL-1573) according to the protocol of FuGENE (registered trademark) HD Transfection Reagent (Promega, #E2311).
(2) Method for Measuring Intracellular Calcium Concentration
The cells steadily expressing human Cav3.2 channels produced by testing method (1) were seeded on a 96-well plate (Dulbecco's modified Eagle medium (DMEM) medium containing 10% fetal bovine serum (FBS) was used as a medium). The cells were seeded and cultured for 48 hours under conditions of 37° C. and 5% CO2. Thereafter, the cells were washed with buffer A in order to remove the medium. Each well was treated with 80 μL of a fluorescent dye solution produced by mixing 22 μg of a fluorescent calcium indicator, Fluo-4 AM (Dojindo Laboratories, #F311), 20 μL of DMSO, 1 μL of 10% Pluronic F-127 (Thermo Fisher Scientific, #P6866), and 4 mL of buffer A. The cells were allowed to stand for 45 minutes at room temperature under light-shielded conditions, and then washed with buffer B in order to completely replace the solution. 70 μL of DMSO having the same concentration as that of a test compound as a negative control and 70 μL of a mixture containing 1 μM of a known blocker RQ-00311651 and the test compound as a positive control were each added to each well in a form of being contained in the buffer B. The test compound was dissolved in 100% DMSO and added at a final concentration of 0.1%. Then, the cells were further allowed to stand at room temperature under light-shielded conditions for 15 minutes and placed in a microplate reader EnVision (PerkinElmer). Background fluorescence was measured in each well, and then a 5 μg/mL grammicidin solution was added to buffer B at 10 μL/well. After 90 seconds, baseline fluorescence was measured. Thereafter, 83.8 mM KCl was added to buffer B at 20 μL/well, and an increase in fluorescence caused by calcium influx generated by the stimulus was measured for 10 seconds. A blocking percentage was calculated from a maximum fluorescence increase value from a baseline, a logarithmic value of a compound concentration and blockery activity were plotted, and thereby an IC50 value was calculated. In the measurement, fluorescence at 510 nm that was emitted when the cells were irradiated with excitation light at 485 nm was observed.
Buffer A: 140 mM NaCl, 5 mM KCl, 1 mM MgCl2, 0.5 mM CaCl2, 10 mM Glucose, 10 mM HEPES, pH 7.3
Buffer B: 137.9 mM Choline-Cl, 4.1 mM KCl, 1 mM MgCl2, 0.5 mM CaCl2, 10 mM Glucose, 10 mM HEPES, pH 7.3

T1 sequence (O95180 whole entry): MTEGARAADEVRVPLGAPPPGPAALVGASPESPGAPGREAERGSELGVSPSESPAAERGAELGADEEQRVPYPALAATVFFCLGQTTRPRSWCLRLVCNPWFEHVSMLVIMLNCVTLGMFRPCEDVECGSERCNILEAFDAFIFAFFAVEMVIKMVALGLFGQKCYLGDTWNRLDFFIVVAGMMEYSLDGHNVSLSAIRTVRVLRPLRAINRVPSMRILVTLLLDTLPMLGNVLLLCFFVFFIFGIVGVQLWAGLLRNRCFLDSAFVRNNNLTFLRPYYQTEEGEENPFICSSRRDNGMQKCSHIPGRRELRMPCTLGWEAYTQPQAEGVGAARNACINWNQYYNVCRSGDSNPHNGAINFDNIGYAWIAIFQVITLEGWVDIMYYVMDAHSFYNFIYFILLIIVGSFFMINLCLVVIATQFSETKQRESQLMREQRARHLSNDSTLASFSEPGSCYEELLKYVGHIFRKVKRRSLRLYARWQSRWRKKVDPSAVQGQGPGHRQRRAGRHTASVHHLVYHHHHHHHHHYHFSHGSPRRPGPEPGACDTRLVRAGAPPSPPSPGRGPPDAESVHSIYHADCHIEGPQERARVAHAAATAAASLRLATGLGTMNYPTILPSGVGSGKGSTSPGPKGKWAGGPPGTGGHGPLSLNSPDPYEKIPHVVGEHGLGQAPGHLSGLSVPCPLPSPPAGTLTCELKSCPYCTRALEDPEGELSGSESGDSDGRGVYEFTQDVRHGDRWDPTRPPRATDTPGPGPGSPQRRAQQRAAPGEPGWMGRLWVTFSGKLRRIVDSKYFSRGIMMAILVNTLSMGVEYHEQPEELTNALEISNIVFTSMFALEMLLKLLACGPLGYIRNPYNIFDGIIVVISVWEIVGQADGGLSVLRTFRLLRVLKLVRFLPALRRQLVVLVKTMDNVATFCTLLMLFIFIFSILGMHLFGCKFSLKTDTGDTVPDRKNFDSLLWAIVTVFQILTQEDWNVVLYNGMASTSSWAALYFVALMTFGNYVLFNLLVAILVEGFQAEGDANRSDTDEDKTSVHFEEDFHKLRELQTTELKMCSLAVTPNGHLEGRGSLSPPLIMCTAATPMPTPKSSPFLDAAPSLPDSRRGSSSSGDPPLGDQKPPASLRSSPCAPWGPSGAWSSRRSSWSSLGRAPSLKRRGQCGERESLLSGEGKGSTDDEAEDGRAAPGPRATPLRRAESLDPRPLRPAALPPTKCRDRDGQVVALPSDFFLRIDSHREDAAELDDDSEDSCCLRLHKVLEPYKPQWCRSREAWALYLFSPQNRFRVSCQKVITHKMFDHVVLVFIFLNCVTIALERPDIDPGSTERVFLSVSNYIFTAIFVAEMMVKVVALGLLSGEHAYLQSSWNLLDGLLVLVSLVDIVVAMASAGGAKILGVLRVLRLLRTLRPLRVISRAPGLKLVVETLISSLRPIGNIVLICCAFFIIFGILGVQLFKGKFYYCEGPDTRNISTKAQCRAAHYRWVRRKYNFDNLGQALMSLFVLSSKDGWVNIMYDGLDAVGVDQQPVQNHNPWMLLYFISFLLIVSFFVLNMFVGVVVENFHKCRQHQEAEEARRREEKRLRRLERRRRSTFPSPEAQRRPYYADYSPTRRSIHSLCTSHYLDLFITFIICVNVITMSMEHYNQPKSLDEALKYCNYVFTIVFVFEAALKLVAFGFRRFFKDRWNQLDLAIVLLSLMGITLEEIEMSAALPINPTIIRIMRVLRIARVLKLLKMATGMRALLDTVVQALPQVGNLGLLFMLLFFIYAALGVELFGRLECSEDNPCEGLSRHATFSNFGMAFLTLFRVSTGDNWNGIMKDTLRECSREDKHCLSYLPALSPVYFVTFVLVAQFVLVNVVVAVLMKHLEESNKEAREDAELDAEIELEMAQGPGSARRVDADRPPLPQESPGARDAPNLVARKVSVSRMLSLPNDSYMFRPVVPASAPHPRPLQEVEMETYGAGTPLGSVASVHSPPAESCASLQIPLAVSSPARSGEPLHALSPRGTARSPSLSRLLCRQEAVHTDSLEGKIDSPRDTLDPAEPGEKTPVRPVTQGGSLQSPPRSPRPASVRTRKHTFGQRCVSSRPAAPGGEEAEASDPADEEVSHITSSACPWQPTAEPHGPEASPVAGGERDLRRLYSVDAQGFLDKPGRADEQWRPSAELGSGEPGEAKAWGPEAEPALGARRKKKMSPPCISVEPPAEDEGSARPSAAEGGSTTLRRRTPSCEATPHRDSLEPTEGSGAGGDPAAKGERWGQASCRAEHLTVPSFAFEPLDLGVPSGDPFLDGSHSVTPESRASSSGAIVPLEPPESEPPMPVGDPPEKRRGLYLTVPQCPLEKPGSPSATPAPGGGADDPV

SMILES	IC50 [nM]
N#Cc1ncc(N2CC[C@@H](NC(=O)Cc3ccc(C4CC4)cc3)C2)cc1C(F)(F)F [Example 12, (R)—N-(1-(6-cyano-5-(trifluoromethyl)pyridin-3-yl)pyrrolidin-3-yl)-2-(4-cyclopropylphenyl)acetamide]	280
O=C(N[C@@H]1CCN(c2cncc(C(F)(F)F)c2)C1)C1CC1c1ccc(C2CC2)cc1 (single isomer, unassigned) [Example 106B]	400
COc1cc(OC)nc(N2CC[C@@H](NC(=O)Cc3ccc(C4CC4)cc3)C2)n1 [Example 180, (R)-2-(4-cyclopropylphenyl)-N-(1-(4,6-dimethoxypyrimidin-2-yl)pyrrolidin-3-yl)acetamide]	2100
O=C(Cc1ccc(N2C3CCC2COC3)cc1)N[C@@H]1CCN(c2cncc(C(F)(F)F)c2)C1 [Example 149, 2-(4-(3-Oxa-8-azabicyclo[3.2.1]octan-8-yl)phenyl)-N—((R)-1-(5-(trifluoromethyl)pyridin-3-yl)pyrrolidin-3-yl) acetamide]	69
O=C(N[C@@H]1CCN(c2cncc(C(F)(F)F)c2)C1)C1CC1c1ccc(F)c(F)c1 (single isomer, unassigned) [Example 107B]	560
O=C(N[C@@H]1CCN(c2cncc(C(F)(F)F)c2)C1)[C@H]1C[C@@H]1c1nc2cc(F)c(F)cc2o1 [Example 45]	11
O=C(N[C@@H]1CCN(c2cncc(C(F)(F)F)c2)C1)C1CC1c1ccc(C2CC2)cc1 (single isomer, unassigned) [Example 106A]	11
O=C(N[C@@H]1CCN(c2ccc(C(F)(F)F)nc2)C1)[C@H]1C[C@@H]1c1nc2ccccc2[nH]1 [Example 54, (1S,2S)-2-(1H-benzo[d]imidazol-2-yl)-N—((R)-1-(6-(trifluoromethyl)pyridin-3-yl)pyrrolidin-3-yl)cyclopropane-1-carboxyamide]	87
O=C(N[C@@H]1CCN(c2cncc(C(F)(F)F)c2)C1)C1CC1c1ccc(Br)cc1 (single isomer, unassigned) [Example 100B]	460
O=C(Cc1ccc(C2CC2)cc1)N[C@@H]1CCN(c2ccc(F)c(C(F)(F)F)c2)C1 [Example 174, (R)-2-(4-cyclopropylphenyl)-N-(1-(4-fluoro-3-(trifluoromethyl)phenyl)pyrrolidin-3-yl)acetamide]	200
O=C(N[C@@H]1CCN(c2ccc(C(F)(F)F)nc2)C1)[C@H]1C[C@@H]1c1nc2ccccc2n1C1CC1 [Example 73, (1S,2S)-2-(1-cyclopropyl-1H-benzo[d]imidazol-2-yl)-N—((R)-1-(6-(trifluoromethyl)pyridin-3-yl)pyrrolidin-3-yl)cyclopropane-1-carboxyamide]	1000
O=C(Cc1ccc2ocnc2c1)N[C@@H]1CCN(c2ccc(C(F)(F)F)nc2)C1 [Example 151, (R)-2-(benzo[d]oxazol-5-yl)-N-(1-(6-(trifluoromethyl)pyridin-3-yl)pyrrolidin-3-yl)acetamide]	2700
CC(C)(C)c1csc(N2CC[C@@H](NC(=O)[C@H]3C[C@@H]3c3nc4ccccc4[nH]3)C2)n1 [Example 68, (1S,2S)-2-(1H-benzo[d]imidazol-2-yl)-N—((R)-1-(4-(tert-butyl)thiazol-2-yl)pyrrolidin-3-yl)cyclopropane-1-carboxyamide]	75

Second part, the compound after the results:

IC50 [nM]	SMILES
150	O=C(Cc1ccc(C(F)(F)F)c(F)c1)N[C@@H]1CCN(c2cncc(C(F)(F)F)c2)C1 [Example 32, (R)-2-(3-fluoro-4-(trifluoromethyl)phenyl)-N-(1-(5-(trifluoromethyl)pyridin-3-yl)pyrrolidin-3-yl)acetamide]
750	O=C(Cc1ccc(C(F)(F)F)nc1)N[C@@H]1CCN(c2cncc(C(F)(F)F)c2)C1 [Example 82, (R)-2-(6-(trifluoromethyl)pyridin-3-yl)-N-(1-(5-(trifluoromethyl)pyridin-3-yl)pyrrolidin-3-yl)acetamide]
5.4	O=C(Cc1ccc(N2CCCC2)cc1)N[C@@H]1CCN(c2cncc(C(F)(F)F)c2)C1 [Example 87, (R)-2-(4-(pyrrolidin-1-yl)phenyl)-N-(1-(5-(trifluoromethyl)pyridin-3-yl)pyrrolidin-3-yl)acetamide]
14	CC(C)c1ccc(CC(=O)N[C@@H]2CCN(c3cncc(C(F)(F)F)c3)C2)cc1 [Example 4, (R)-2-(4-isopropylphenyl)-N-(1-(5-(trifluoromethyl)pyridin-3-yl)pyrrolidin-3-yl)acetamide]
260	O=C(Cc1ccc(N2CC3(COC3)C2)cc1)N[C@@H]1CCN(c2cncc(C(F)(F)F)c2)C1 [Example 46, (R)-2-(4-(2-oxa-6-azaspiro[3.3]heptan-6-yl)phenyl)-N-(1-(5-(trifluoromethyl)pyridin-3-yl)pyrrolidin-3-yl) acetamide]
150	O=C(Cc1ccc2cccnc2c1)N[C@@H]1CCN(c2cncc(C(F)(F)F)c2)C1 [Example 79, (R)-2-(quinolin-7-yl)-N-(1-(5-(trifluoromethyl)pyridin-3-yl)pyrrolidin-3-yl)acetamide hydrochloride]
71	CC(C)c1ccc(CC(=O)NC2CN(c3cncc(C(F)(F)F)c3)C2)cc1 [Example 117, 2-(4-Isopropylphenyl)-N-(1-(5-(trifluoromethyl)pyridin-3-yl)azetidin-3-yl)acetamide]
2300	O=C(Cc1cc(Cl)cc(Cl)c1)N[C@@H]1CCN(c2cncc(C(F)(F)F)c2)C1 [Example 119, (R)-2-(3,5-dichlorophenyl)-N-(1-(5-(trifluoromethyl)pyridin-3-yl)pyrrolidin-3-yl)acetamide]
630	CC(=O)Nc1ccc(CC(=O)N[C@@H]2CCN(c3cncc(C(F)(F)F)c3)C2)cc1 [Example 35, (R)-2-(4-acetamidophenyl)-N-(1-(5-(trifluoromethyl)pyridin-3-yl)pyrrolidin-3-yl)acetamide]
430	O=C(Cc1ccc(C(F)(F)F)cc1)NC1CN(c2cncc(C(F)(F)F)c2)C1 [Example 89, 2-(4-(Trifluoromethyl)phenyl)-N-(1-(5-(trifluoromethyl)pyridin-3-yl)azetidin-3-yl)acetamide]
1600	O=C(Cc1ccc(O)cc1)N[C@@H]1CCN(c2cncc(C(F)(F)F)c2)C1 [Example 22, (R)-2-(4-hydroxyphenyl)-N-(1-(5-(trifluoromethyl)pyridin-3-yl)pyrrolidin-3-yl)acetamide]
180	O=C(Cc1ccc(C(F)(F)F)cc1F)N[C@@H]1CCN(c2cncc(C(F)(F)F)c2)C1 [Example 141, (R)-2-(2-fluoro-4-(trifluoromethyl)phenyl)-N-(1-(5-(trifluoromethyl)pyridin-3-yl)pyrrolidin-3-yl)acetamide]
410	O=C(Cc1ccc(C2CC2)cc1)N[C@]12CC1CN(c1cncc(C(F)(F)F)c1)C2 (stereo partly shown) [Example 10, 2-(4-cyclopropylphenyl)-N-(3-(5-(trifluoromethyl)pyridin-3-yl)-3-azabicyclo[3.1.0]hexan-1-yl) acetamide]
260	O=C(Cc1ccc(C2CC2)cc1)NC1(C(F)(F)F)CCN(c2cncc(C(F)(F)F)c2)C1 (stereo not shown) [Example 161, 2-(4-cyclopropylphenyl)-N-(3-(trifluoromethyl)-1-(5-(trifluoromethyl)pyridin-3-yl)pyrrolidin-3-yl)acetamide]
380	CC(C)Cc1ccc(C(C)C(=O)N[C@@H]2CCN(c3cncc(C(F)(F)F)c3)C2)cc1 (stereo partly drawn) [Example 17, 2-(4-Isobutylphenyl)-N—((R)-1-(5-(trifluoromethyl)pyridin-3-yl)pyrrolidin-3-yl)propanamide]
